Source: paper PMC6225275 (Molecules : A Journal of Synthetic Chemistry and Natural …, 2018)
Where “and” joins values, the source holds several entries; their conditions need not be identical. Identical values can stand only once.

How the values were obtained:
Format in all cases: biochemical
[1] = target: T1, paraoxon (POX)-inhibited human recombinant AChE (HssAChE) (Homo sapiens, UniProt P22303); conditions: for POX-HssAChE Reactivation (% ± SD): pH 7.4
T1 construct: purchased Sigma-Aldrich

[2] = target: T2, methylparaoxon (MePOX)-inhibited human recombinant AChE (HssAChE) (Homo sapiens, UniProt P22303); conditions: for MePOX-HssAChE Reactivation (% ± SD): pH 7.4
T2 construct: purchased Sigma-Aldrich

[3] = target: T3, diisopropylfluorophosphate (DFP)-inhibited human recombinant AChE (HssAChE) (Homo sapiens, UniProt P22303); conditions: pH 7.4
T3 construct: purchased Sigma-Aldrich
T3 sequence (P22303 32-614): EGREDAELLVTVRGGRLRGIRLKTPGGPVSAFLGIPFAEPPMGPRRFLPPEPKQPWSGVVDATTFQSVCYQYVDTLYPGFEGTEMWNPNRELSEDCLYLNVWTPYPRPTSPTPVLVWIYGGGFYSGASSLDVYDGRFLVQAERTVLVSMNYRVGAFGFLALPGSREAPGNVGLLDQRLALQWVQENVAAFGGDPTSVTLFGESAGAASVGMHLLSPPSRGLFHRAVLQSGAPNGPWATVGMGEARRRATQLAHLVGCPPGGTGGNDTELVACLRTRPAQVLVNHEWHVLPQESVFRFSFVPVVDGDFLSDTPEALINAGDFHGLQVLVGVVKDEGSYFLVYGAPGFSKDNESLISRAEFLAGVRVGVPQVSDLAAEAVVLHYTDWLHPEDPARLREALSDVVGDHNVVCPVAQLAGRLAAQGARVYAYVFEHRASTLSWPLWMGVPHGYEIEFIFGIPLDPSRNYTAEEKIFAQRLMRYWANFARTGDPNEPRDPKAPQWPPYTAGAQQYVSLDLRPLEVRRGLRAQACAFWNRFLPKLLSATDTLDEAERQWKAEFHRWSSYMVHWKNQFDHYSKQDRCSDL

T2 sequence (P22303 32-614): as above
T1 sequence (P22303 32-614): as above

SMILES: ON=Cc1cc[n+](CCCC[n+]2cccc3ccccc32)cc1 [Compound 12, 4-Hydroxyiminomethyl-1,1′-(but-1,4-diyl)-1-pyridinium-1′-quinolinium dibromide]
- POX-HssAChE Reactivation (% ± SD) [1]: 0.6 ± 0.5% and 2.0 ± 0.1%
- MePOX-HssAChE Reactivation (% ± SD) [2]: 2.2 ± 0.5% and 8.6 ± 0.4%
- DFP-HssAChE Reactivation (% ± SD) [3]: 0.2 ± 1.0% and 0.8 ± 0.2%

SMILES: NC(=O)c1cc[n+](C/C=C/C[n+]2ccc(/C=N/O)cc2)cc1 [Compound 9, (E)-1-(4-Carbamoylpyridinium)-4-(4-hydroxyiminomethylpyridinium)-but-2-ene Dibromide, reference compound]
- MePOX-HssAChE Reactivation (% ± SD) [2]: 55.9 ± 0.5% and 41.1 ± 0.1%
- DFP-HssAChE Reactivation (% ± SD) [3]: 4.4 ± 0.1% and 2.1 ± 0.4%

SMILES: CC(C)(C)c1cc[n+](CCCC[n+]2ccc(C=NO)cc2)cc1.[Br-].[Br-] [Compound 15, 4-Hydroxyiminomethyl-4′-(1,1-dimethylethyl)-1,1′-(but-1,4-diyl)-bispyridinium dibromide]
- MePOX-HssAChE Reactivation (% ± SD) [2]: 4.0 ± 0.5% and 7.6 ± 0.5%
- DFP-HssAChE Reactivation (% ± SD) [3]: 1.7 ± 0.5% and 0.8 ± 0.3%

SMILES: ON=Cc1cc[n+](CCCC[n+]2ccccc2)cc1.[Br-].[Br-] [Compound 10, 4-Hydroxyiminomethyl-1,1′-(but-1,4-diyl)-bispyridinium dibromide]
- MePOX-HssAChE Reactivation (% ± SD) [2]: 14.3 ± 0.8% and 13.2 ± 0.1%
- DFP-HssAChE Reactivation (% ± SD) [3]: 2.4 ± 0.5% and 0.4 ± 0.3%

SMILES: ON=Cc1cc[n+](C/C=C/C[n+]2ccc(/C=N/O)cc2)cc1 [Compound 8, reference compound]
- MePOX-HssAChE Reactivation (% ± SD) [2]: 19.2 ± 0.9% and 22.8 ± 0.2%
- DFP-HssAChE Reactivation (% ± SD) [3]: 1.1 ± 0.3% and 1.5 ±0.2%

SMILES: C[n+]1ccccc1/C=N/O [Compound 1, pralidoxime, reference compound]
- POX reactivation, maximum over both concentrations [1]: up to 11%
- POX-HssAChE Reactivation (% ± SD) [1]: 10.7 ± 0.3% and 2.1 ± 0.1%
- MePOX reactivation, maximum over both concentrations [2]: up to 30%
- MePOX-HssAChE Reactivation (% ± SD) [2]: 30.2 ± 0.3% and 22.4 ± 0.7%
- DFP-HssAChE Reactivation (% ± SD) [3]: 1.3 ± 0.6% and 0.1 ± 0.4%

SMILES: ON=Cc1cc[n+](CCCC[n+]2ccccn2)cc1 [Compound 11, 4-Hydroxyiminomethyl-1,1′-(but-1,4-diyl)-1-pyridinium-1′-pyridazinium dibromide]
- POX-HssAChE Reactivation (% ± SD) [1]: 6.3 ± 0.8% and 3.0 ± 0.3%
- MePOX-HssAChE Reactivation (% ± SD) [2]: 7.1 ± 0.7% and 11.8 ± 0.4%
- DFP-HssAChE Reactivation (% ± SD) [3]: 1.2 ± 0.7% and 1.0 ± 0.4%

SMILES: NC(=O)c1cc[n+](CCCC[n+]2ccc(C=NO)cc2)cc1C(N)=O.[Br-].[Br-] [Compound 24, 3,4-Dicarbamoyl-4′-hydroxyiminomethyl-1,1′-(but-1,4-diyl)-bispyridinium dibromide]
- POX-HssAChE Reactivation (% ± SD) [1]: 2.0 ± 0.4% and 2.2 ± 0.8%
- MePOX-HssAChE Reactivation (% ± SD) [2]: 4.2 ± 0.5% and 10.1 ± 0.2%
- DFP-HssAChE Reactivation (% ± SD) [3]: 0.7 ± 0.4% and 0.7 ± 1.0%

SMILES: ON=Cc1cc[n+](CCCC[n+]2ccc(/C=N/O)cc2)cc1 [Compound 7, reference compound]
- MePOX-HssAChE Reactivation (% ± SD) [2]: 17.9 ± 0.1% and 21.2 ± 0.4%
- DFP-HssAChE Reactivation (% ± SD) [3]: 1.4 ± 0.5% and 1.4 ± 0.2%

SMILES: CCOC(=O)c1cc[n+](CCCC[n+]2ccc(C=NO)cc2)cc1 [Compound 21, 4-Ethylcarboxy-4′-hydroxyiminomethyl-1,1′-(but-1,4-diyl)-bispyridinium dibromide]
- POX-HssAChE Reactivation (% ± SD) [1]: 7.1 ± 0.7% and 4.0 ± 0.6%
- MePOX-HssAChE Reactivation (% ± SD) [2]: 3.8 ± 0.4% and 7.2 ± 0.2%
- DFP-HssAChE Reactivation (% ± SD) [3]: 0.8 ± 0.3% and 1.1 ± 0.2%

SMILES: N#Cc1cc[n+](CCCC[n+]2ccc(C=NO)cc2)cc1 [Compound 22, 4-Carbonitril-4′-hydroxyiminomethyl-1,1′-(but-1,4-diyl)-bispyridinium dibromide]
- MePOX-HssAChE Reactivation (% ± SD) [2]: 11.1 ± 0.1% and 13.8 ± 0.3%
- DFP-HssAChE Reactivation (% ± SD) [3]: 1.7 ± 0.5% and 0.4 ± 0.2%

SMILES: O=C(O)c1cc[n+](CCCC[n+]2ccc(C=NO)cc2)cc1.[Br-].[Br-] [Compound 20, 4-Carboxy-4′-hydroxyiminomethyl-1,1′-(but-1,4-diyl)-bispyridinium dibromide]
- MePOX-HssAChE Reactivation (% ± SD) [2]: 9.5 ± 0.3% and 8.8 ± 0.4%
- DFP-HssAChE Reactivation (% ± SD) [3]: 1.1 ± 0.5% and 0.4 ± 0.1%

SMILES: NC(=O)c1cc[n+](CCCC[n+]2ccc(/C=N/O)cc2)cc1 [Compound 6, reference compound]
- MePOX-HssAChE Reactivation (% ± SD) [2]: 54.4 ± 0.9% and 29.1 ± 0.4%
- DFP-HssAChE Reactivation (% ± SD) [3]: 3.8 ± 0.1% and 1.4 ± 0.1%

SMILES: ON=Cc1cc[n+](CCCC[n+]2ccc3ccccc3c2)cc1 [Compound 13, 4-Hydroxyiminomethyl-1,1′-(but-1,4-diyl)-1-pyridinium-1′-isoquinolinium dibromide]
- POX-HssAChE Reactivation (% ± SD) [1]: 9.1 ± 0.3% and 8.7 ± 0.3%
- MePOX-HssAChE Reactivation (% ± SD) [2]: 8.2 ± 0.8% and 16.9 ± 0.4%
- DFP-HssAChE Reactivation (% ± SD) [3]: 0.7 ± 0.2% and 1.1 ± 0.2%

SMILES: ON=Cc1cc[n+](CCCC[n+]2ccc(-c3ccccc3)cc2)cc1.[Br-].[Br-] [Compound 16, 4-Hydroxyiminomethyl-4′-phenyl-1,1′-(but-1,4-diyl)-bispyridinium dibromide]
- POX-HssAChE Reactivation (% ± SD) [1]: 6.9 ± 0.4% and 8.9 ± 0.5%
- MePOX-HssAChE Reactivation (% ± SD) [2]: 1.7 ± 0.3% and 6.2 ± 0.4%
- DFP-HssAChE Reactivation (% ± SD) [3]: 0.7 ± 0.2% and 1.0 ± 0.3%

SMILES: ON=Cc1cc[n+](C[n+]2ccc(C=NO)cc2)cc1 [Compound 5, methoxime, reference compound]
- MePOX-HssAChE Reactivation (% ± SD) [2]: 14.2 ± 0.1% and 14.3 ± 0.2%
- DFP-HssAChE Reactivation (% ± SD) [3]: 2.4 ± 0.1% and 0.6 ± 0.3%

SMILES: CC(=O)c1cc[n+](CCCC[n+]2ccc(C=NO)cc2)cc1.[Br-].[Br-] [Compound 19, 4-Hydroxyiminomethyl-4′-methylcarbonyl-1,1′-(but-1,4-diyl)-bispyridinium dibromide]
- POX-HssAChE Reactivation (% ± SD) [1]: 11.9 ± 1.0% and 3.9 ± 0.3%
- MePOX-HssAChE Reactivation (% ± SD) [2]: 5.2 ± 0.4% and 7.5 ± 0.1%
- DFP-HssAChE Reactivation (% ± SD) [3]: 1.5 ± 0.3% and 1.0 ± 0.2%

SMILES: NC(=NO)c1cc[n+](CCCC[n+]2ccc(C=NO)cc2)cc1.[Br-].[Br-] [Compound 23, 4-(1-Amino-1-hydroxyiminomethyl)-4′-hydroxyiminomethyl-1,1′-(but-1,4-diyl)-bispyridinium dibromide]
- MePOX-HssAChE Reactivation (% ± SD) [2]: 21% and 20.2 ± 1.0% and 20.7 ± 0.4%
- DFP-HssAChE Reactivation (% ± SD) [3]: 3.1 ± 0.8% and 2.0 ± 0.2%

SMILES: Cc1cc[n+](CCCC[n+]2ccc(C=NO)cc2)cc1.[Br-].[Br-] [Compound 14, 4-Hydroxyiminomethyl-4′-methyl-1,1′-(but-1,4-diyl)-bispyridinium dibromide]
- MePOX-HssAChE Reactivation (% ± SD) [2]: 9.5 ± 0.5% and 9.4 ± 0.2%
- DFP-HssAChE Reactivation (% ± SD) [3]: 1.1 ± 0.4% and 0.8 ± 0.3%

SMILES: ON=Cc1cc[n+](CCCC[n+]2ccc(Cc3ccccc3)cc2)cc1.[Br-].[Br-] [Compound 17, 4-Hydroxyiminomethyl-4′-phenylmethyl-1,1′-(but-1,4-diyl)-bispyridinium dibromide]
- POX-HssAChE Reactivation (% ± SD) [1]: 1.2 ± 0.1% and 4.7 ± 0.3%
- MePOX-HssAChE Reactivation (% ± SD) [2]: 0.0 ± 0.1% and 3.8 ± 0.4%
- DFP-HssAChE Reactivation (% ± SD) [3]: 0.0 ± 0.5% and 0.8 ± 0.2%

SMILES: ON=Cc1cc[n+](CCC[n+]2ccc(/C=N/O)cc2)cc1 [Compound 4, trimedoxime, reference compound]
- MePOX-HssAChE Reactivation (% ± SD) [2]: 51.4 ± 0.9% and 59.5 ± 0.7%
- DFP-HssAChE Reactivation (% ± SD) [3]: 10.0 ± 0.5% and 2.7 ± 0.3%

SMILES: OCc1cc[n+](CCCC[n+]2ccc(C=NO)cc2)cc1.[Br-].[Br-] [Compound 18, 4-Hydroxyiminomethyl-4′-hydroxymethyl-1,1′-(but-1,4-diyl)-bispyridinium dibromide]
- MePOX-HssAChE Reactivation (% ± SD) [2]: 6.7 ± 0.3% and 8.1 ± 0.3%
- DFP-HssAChE Reactivation (% ± SD) [3]: 3.8 ± 1.0% and 1.4 ± 0.4%
